In patent US20120065179A1, “PRODRUG COMPRISING BETA-KETO CARBOXYLIC ACID, BETA-KETO CARBOXYLIC ACID SALT OR BETA-KETO CARBOXYLIC ACID ESTER FOR DRUG DELIVERY” (YKI, Ytemiska Institutet AB, priority 2009, published 2012):
Values joined by “and” are separate entries in the source; they are usually repeats but may differ in a detail not shown here. Equal values may be shown once. Values belong to the molecule of their own block, whether it stands above or below them.

Experiments:
[1] = Sustained release of acetophenone in vitro in pig blood at 37° C.; conditions: for Benzoyl acetate ion concentration: pig blood pH 6.63
[2] = Storage stability of benzoylacetate salts and their corresponding acid (HPLC or gravimetric); format: physicochemical; conditions: for weight % of initial amount: Solid benzoylacetic acid, room T and ambient indoor humidity
Procedure: A 0.2 M solution of ethyl benzoyl acetate (90%, Sigma Aldrich) in 0.5 M NaOH (aq) was prepared at room temperature and stirred for typically 5-24 hours, still at room temperature. After this time a major part of the ethyl benzoyl acetate had been transformed into dissolved sodium benzoyl acetate, as evidenced by monitoring the reaction by analysis of samples by reversed phase HPLC. Some acetophenone and remaining ethyl benzoyl acetate were typically present in the samples, but in minor amounts. The method employed a C8 column with an inner diameter of 150×4.6 mm and 5 micron particles. The mobile phase consisted of 400 ml deionized water+600 ml acetonitrile+0.196 g H3PO4 (85%)+2.760 g NaH2PO4*H2O. The flow rate was set to 1.0 mL/min and UV detection at 254 nm was employed for analysis of the compounds ethylbenzoylacetate (precursor), benzoylacetate (model prodrug) and acetophenone (model drug).
The storage stability of the sodium and calcium salts of benzoylacetate, and of benzoylacetic acid, in solid form, and in aqueous solutions, was investigated by storage of samples under various conditions (see Table 3a above) with regular HPLC- or gravimetric measurements of the samples from time to time. Samples denoted “neutralized” were prepared from a solution prepared as described in Example 1, which was neutralized with diluted HCl after performing the steps in Example 1.
From the data it can be concluded that the best storage stability at room temperature is obtained by storage in the form of the calcium salt.

[3] = In-vitro hydrolysis of Nabumetone beta-keto ester pro-prodrug and release of Nabumetone in model blood electrolyte solution at 37° C.; format: physicochemical; conditions: model blood solutes solution
[4] = Aqueous solubility of sodium beta-keto salt prodrug of Nabumetone (Example 13b); format: physicochemical; conditions: clear liquid after 3.5 h at 37° C. in 0.5 M NaOH; 200 μL diluted with 5.0 ml mobile phase
Procedure: 12.1 mg of the of ethyl-5-(6-methoxy-2-naphthyl)-beta-keto-pentanoate product prepared and purified as in Example 8 was mixed with 25 mL of a 0.5 M aqueous solution NaOH and homogenised on a vortex mixer. […] 15 minutes after preparation of the sample, the sample was transferred to an oil bath set at 37° C. with continuous gentle magnetic stirring, and kept there for 3.5 hours. Crystalline flakes remained in the sample at the end of the 3.5 hours heat-treatment, and the sample was thereafter centrifuged and the clear liquid above the sedimented crystals was analysed by HPLC as described above.
After storage around one hour at room temperature a fraction of the sample was then filtered twice through a 0.2 μm filter (Whatman, 0.2 μm PS) fitted to a syringe to give a clear solution. 200 μL of this filtered solution was transferred, in a tightly closed vessel, to an oil bath at 95° C. and kept at this temperature for about 5 hours to bring about quantitative decarboxylation of the labile, dissolved beta-keto carboxylic salt prodrug derivative of Nabumetone.
The heated sample was then mixed with 35 mL of mobile phase (see Example 1) whereby a few solid crystals (comprising Nabumetone) was seen to not dissolve. In order to assure a correct sampling for HPLC analysis, 5 mL of the 35 mL sample was filtered through a 0.2 μm filter, after the whole 35 mL sample had been pH adjusted to 4.21 by 300 μL 0.1 M HCl+100 μL 1 M HCl, to assure that the pH of the sample was close to the pH of the mobile phase itself (pH 4.30). The filtered solution was thereafter analysed by HPLC and found to contain 0.777 mg Nabumetone per liter. If recalculated to the corresponding concentration of nabumetone equivalents in the form of the beta-keto salt prodrug present in dissolved form in the filtered 200 μl sample that was subsequently heat-treated to form Nabumetone above, the obtained concentration corresponds to a Nabumetone concentration of 136.7 mg Nabumetone per liter in the clear aqueous solution, at room temperature, before the heat-treatment at 95° C.

[5] = Storage stability of beta-keto calcium salt prodrug of Nabumetone (17 days at 60° C., HPLC); format: physicochemical; conditions: for Relative amount of calcium salt beta-keto prodrug/Nabumetone remaining after 17 days at 60° C.: dry calcium salt, oven at 60° C.

Molecule: benzoyl acetate [Benzoyl acetate ion]
half life ([1]; pig blood pH 6.63, 37° C.): about 3 hours | period of sustained release of the acetophenone (model drug) ([1]; pig blood pH 6.63, 37° C.): at least 6 hours | Benzoyl acetate ion concentration ([1]; Time at 37° C. 0.25): 1.83 mM | Benzoyl acetate ion concentration ([1]; Time at 37° C. 1.33): 1.54 mM | Benzoyl acetate ion concentration ([1]; Time at 37° C. 2.58 (sampling time possibly exchanged with 4.75)): 1.17 mM | Benzoyl acetate ion concentration ([1]; Time at 37° C. 4.75 (sampling time possibly exchanged with 2.58)): 0.929 mM | Benzoyl acetate ion concentration ([1]; Time at 37° C. 5.58): 0.724 mM | Benzoyl acetate ion concentration ([1]; Time at 37° C. 6.58): 0.641 mM | Benzoyl acetate ion concentration ([1]; Time at 37° C. 22.58): 0.0356 mM | Benzoyl acetate ion concentration ([1]; Time at 37° C. −0.17 (analysed just before heating to 37° C.)): 2.30 mM

weight % of initial amount ([2]; storage time 0 days): 100 weight % | weight % of initial amount ([2]; storage time 9 days): 94.7 weight % | weight % of initial amount ([2]; storage time 23 days): 87.4 weight % | weight % of initial amount ([2]; storage time 27 days): 85.4 weight % | weight % of initial amount ([2]; storage time 29 days): 84.4 weight % | weight % of initial amount ([2]; storage time 35 days): 81.9 weight % | weight % of initial amount ([2]; storage time 42 days): 79.4 weight % | weight % of initial amount ([2]; storage time 52 days): 73.6 weight % | half-life ([2]; solid dry acid, typical indoor conditions): ~100 days
Molecule: O=C(O)CC(=O)c1ccccc1 [benzoylacetic acid]

Pro-prodrug/beta-keto ester (HPLC peak area) ([3]; Time 0.00 hours): 1440 arbitrary units | Pro-prodrug/beta-keto ester (HPLC peak area) ([3]; Time 0.67 hours): 1368 arbitrary units | Pro-prodrug/beta-keto ester (HPLC peak area) ([3]; Time 1.67 hours): 1395 arbitrary units | Pro-prodrug/beta-keto ester (HPLC peak area) ([3]; Time 2.67 hours): 1145 arbitrary units | Pro-prodrug/beta-keto ester (HPLC peak area) ([3]; Time 4.58 hours): 1130 arbitrary units | Pro-prodrug/beta-keto ester (HPLC peak area) ([3]; Time 22.6 hours): 780 arbitrary units | Pro-prodrug/beta-keto ester (HPLC peak area) ([3]; Time 28.8 hours): 672 arbitrary units | Pro-prodrug/beta-keto ester (HPLC peak area) ([3]; Time 48.8 hours): 618 arbitrary units | Pro-prodrug/beta-keto ester (HPLC peak area) ([3]; Time 53.6 hours): 0 arbitrary units | Pro-prodrug/beta-keto ester (HPLC peak area) ([3]; Time 121.25 hours): 0 arbitrary units | Pro-prodrug/beta-keto ester (HPLC peak area) ([3]; Time 145.0 hours): 0 arbitrary units | Pro-prodrug/beta-keto ester (HPLC peak area) ([3]; Time 172.6 hours): 0 arbitrary units | Pro-prodrug/beta-keto ester (HPLC peak area) ([3]; Time 197.3 hours): 0 arbitrary units | Pro-prodrug/beta-keto ester (HPLC peak area) ([3]; Time 218.4 hours): 0 arbitrary units | Pro-prodrug/beta-keto ester (HPLC peak area) ([3]; Time 293.7 hours): 0 arbitrary units | Pro-prodrug/beta-keto ester (HPLC peak area) ([3]; Time 335 hours): 0 arbitrary units | Area at retention time […] characteristic for detection of the beta-keto ester pro-prodrug [4]: 632 arbitrary units
Molecule: CCOC(=O)CC(=O)CCc1ccc2cc(OC)ccc2c1 [Pro-prodrug/beta-keto ester, ethyl-5-(6-methoxy-2-naphthyl)-beta-keto-pentanoate]
Pro-prodrug/beta-keto ester (HPLC peak area) ([3]; Time 70.3 hours): 227 arbitrary units and 245 arbitrary units

Molecule: COc1ccc2cc(CCC(=O)CC(=O)O)ccc2c1 [Prodrug/beta-keto anion, 5-(6-methoxy-2-naphthyl)-beta-keto-pentanoate]
Prodrug/beta-keto anion (HPLC area) ([3]; Time 0.00 hours): 2055 arbitrary units | Prodrug/beta-keto anion (HPLC area) ([3]; Time 0.67 hours): 2313 arbitrary units | Prodrug/beta-keto anion (HPLC area) ([3]; Time 1.67 hours): 2383 arbitrary units | Prodrug/beta-keto anion (HPLC area) ([3]; Time 2.67 hours): 2266 arbitrary units | Prodrug/beta-keto anion (HPLC area) ([3]; Time 4.58 hours): 2204 arbitrary units | Prodrug/beta-keto anion (HPLC area) ([3]; Time 22.6 hours): 2079 arbitrary units | Prodrug/beta-keto anion (HPLC area) ([3]; Time 28.8 hours): 2284 arbitrary units | Prodrug/beta-keto anion (HPLC area) ([3]; Time 48.8 hours): 2312 arbitrary units | Prodrug/beta-keto anion (HPLC area) ([3]; Time 53.6 hours): 2350 arbitrary units | Prodrug/beta-keto anion (HPLC area) ([3]; Time 70.3 hours): 2087 arbitrary units and 2313 arbitrary units | Prodrug/beta-keto anion (HPLC area) ([3]; Time 96.8 hours): 1915 arbitrary units and 1922 arbitrary units | Prodrug/beta-keto anion (HPLC area) ([3]; Time 121.25 hours): 1620 arbitrary units | Prodrug/beta-keto anion (HPLC area) ([3]; Time 145.0 hours): 1444 arbitrary units | Prodrug/beta-keto anion (HPLC area) ([3]; Time 172.6 hours): 1220 arbitrary units | Prodrug/beta-keto anion (HPLC area) ([3]; Time 197.3 hours): 1043 arbitrary units | Prodrug/beta-keto anion (HPLC area) ([3]; Time 218.4 hours): 943 arbitrary units | Prodrug/beta-keto anion (HPLC area) ([3]; Time 293.7 hours): 400 arbitrary units | Prodrug/beta-keto anion (HPLC area) ([3]; Time 335 hours): 398.5 arbitrary units

Molecule: 5-(6-methoxy-2-naphthyl)-beta-keto-pentanoate [Beta keto salt prodrug]
half life ([5]; calcium salt form at 20° C., rule of thumb of doubling of reaction rate per 10° C.): ~270 days | Obtained value (area units) ([5]; dry calcium salt after 17 days at 60° C., redissolved in water, HPLC): 1591 area units | Relative amount of calcium salt beta-keto prodrug/Nabumetone remaining after 17 days at 60° C. [5]: 54.7% | Relative amount of calcium salt beta-keto prodrug/Nabumetone remaining after 17 days at 60° C. ([5]; listed as calcium beta-keto salt prodrug of Nabumetone): more than 50% | Expected value if no breakdown occured during storage and a 100% yield was obtained upon precipitation with calcium chloride ([5]; recalculated for dilution): 55938 area units
